Among the data in patent publication US10689367B2, “Triazole pyridyl compounds as agonists of the APJ receptor” (AMGEN INC., priority 2016, dated 2020) are EC50 values, retold here.

human APJ receptor, sequence (P35414 whole entry): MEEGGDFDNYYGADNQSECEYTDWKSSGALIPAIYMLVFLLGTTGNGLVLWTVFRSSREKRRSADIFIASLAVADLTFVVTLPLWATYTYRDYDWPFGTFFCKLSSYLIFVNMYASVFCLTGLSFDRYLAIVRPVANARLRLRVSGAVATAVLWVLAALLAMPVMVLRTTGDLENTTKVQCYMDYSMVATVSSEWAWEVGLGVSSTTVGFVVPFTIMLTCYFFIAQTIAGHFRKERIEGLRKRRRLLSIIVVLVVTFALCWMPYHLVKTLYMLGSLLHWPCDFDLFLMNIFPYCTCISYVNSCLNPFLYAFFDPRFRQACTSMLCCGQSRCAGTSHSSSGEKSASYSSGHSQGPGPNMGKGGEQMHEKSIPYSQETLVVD

The experiment has as its target human APJ receptor (Homo sapiens (Human), UniProt P35414). The experiment can be described thus: [35S]GTPγS binding assay on membranes from CHO cells stably expressing human APJ receptor. In kind it is biochemical. Conditions: membranes of CHO cells stably expressing human APJ receptor, read-out: Activity hAPJ SPA EC50 IP. The essentials:
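Agonist EC50 values come from non-linear regression of mean data from several independent runs. Membranes of CHO cells stably expressing human APJ were incubated 90 min at room temperature with [35S]GTPγS in buffer with optimized GDP, MgCl2 and NaCl, then read on a microplate imager.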
`COc1cccc(-c2nnc(NS(=O)(=O)[C@@H](C)[C@H](C)c3ncc(Cl)cn3)n2[C@@H](C)c2ccno2)n1` (single isomer, unassigned) [Example 215.0, (2S,3R)-3-(5-chloro-2-pyrimidinyl)-N-(5-(6-methoxy-2-pyridinyl)-4-((1R)-1-(1,2-oxazol-5-yl)ethyl)-4H-1,2,4-triazol-3-yl)-2-butanesulfonamide or (2S,3R)-3-(5-chloro-2-pyrimidinyl)-N-(5-(6-methoxy-2-pyridinyl)-4-((1S)-1-(1,2-oxazol-5-yl)ethyl)-4H-1,2,4-triazol-3-yl)-2-butanesulfonamide]: the EC50 is 2 nM.
For the molecule `COc1cccc(-c2nnc(NS(=O)(=O)[C@@H](C)[C@H](OC)c3ncc(Cl)cn3)n2[C@H](C)c2cncnc2)n1` (single isomer, unassigned) [Example 337.0, (1R,2S)-1-(5-chloropyrimidin-2-yl)-1-methoxy-N-(5-(6-methoxypyridin-2-yl)-4-((R)-1-(pyrimidin-5-yl)ethyl)-4H-1,2,4-triazol-3-yl)propane-2-sulfonamide or (1R,2S)-1-(5-chloropyrimidin-2-yl)-1-methoxy-N-(5-(6-methoxypyridin-2-yl)-4-((S)-1-(pyrimidin-5-yl)ethyl)-4H-1,2,4-triazol-3-yl)propane-2-sulfonamide], the 50% effective concentration (EC50) came out at 1.4 nM.
With `COc1cccc(-c2nnc(NS(=O)(=O)[C@@H](C)[C@H](C)c3ncc(Cl)cn3)n2Cc2cnoc2)n1` [Example 187.0, (2S,3R)-3-(5-chloropyrimidin-2-yl)-N-(4-(isoxazol-4-ylmethyl)-5-(6-methoxypyridin-2-yl)-4H-1,2,4-triazol-3-yl)butane-2-sulfonamide] the figure was 650 nM.
Regarding `COc1cccc(-c2nnc(NS(=O)(=O)[C@@H](C)[C@H](OC)c3ncc(Cl)cn3)n2[C@@H]2CC23CC3)n1` (single isomer, unassigned) [Example 90.0], the EC50 worked out at 6.2 nM.
For `COCC(COC)n1c(NS(=O)(=O)[C@@H](C)[C@H](OC)c2ncc(Cl)cn2)nnc1-c1cncc(C)c1` [Example 15.0, (1R,2S)-1-(5-chloro-2-pyrimidinyl)-N-(4-(1,3-dimethoxy-2-propanyl)-5-(5-methyl-3-pyridinyl)-4H-1,2,4-triazol-3-yl)-1-methoxy-2-propanesulfonamiide], the EC50 came out at 30 nM.
With `COC[C@@H](C)n1c(NS(=O)(=O)[C@@H](C)[C@@H](OC(C)C)c2ncc(Cl)cn2)nnc1-c1cccc(OC)n1` [Example 178.0, (1S,2S)-1-(5-chloro-2-pyrimidinyl)-N-(4-((2R)-1-methoxy-2-propanyl)-5-(6-methoxy-2-pyridinyl)-4H-1,2,4-triazol-3-yl)-1-(2-propanyloxy)-2-propanesulfonamide], the EC50 is 0.32 nM.
As for `CCC(CC)n1c(NS(=O)(=O)[C@@H](C)[C@H](OC)c2ncc(Cl)cn2)nnc1-c1cccc(OC)n1` [Example 10.0, (1R,2S)-1-(5-chloro-2-pyrimidinyl)-1-methoxy-N-(5-(6-methoxy-2-pyridinyl)-4-(3-pentanyl)-4H-1,2,4-triazol-3-yl)-2-propanesulfonamide], the EC50 was 0.32 nM.
For `COc1cccc(-c2nnc(NS(=O)(=O)[C@@H](C)[C@H](OC)c3ncc(Cl)cn3)n2Cc2cc(C)no2)n1` [Example 189.0, (1R,2S)-1-(5-chloropyrimidin-2-yl)-1-methoxy-N-(5-(6-methoxypyridin-2-yl)-4-((3-methylisoxazol-5-yl)methyl)-4H-1,2,4-triazol-3-yl)propane-2-sulfonamide], the EC50 was found to be 18 nM.
In the case of `COc1cccc(-c2nnc(NS(=O)(=O)[C@@H](C)[C@H](OC)c3ncc(Cl)cn3)n2C[C@H]2CCC(C)(C)O2)n1` (single isomer, unassigned) [Example 289.0, (1R,2S)-1-(5-chloropyrimidin-2-yl)-N-(4-(((R)-5,5-dimethyltetrahydrofuran-2-yl)methyl)-5-(6-methoxyl)yridin-2-yl)-4H-1,2,4-triazol-3-yl)-1-methoxypropane-2-sulfonamide or (1R,2S)-1-(5-chloropyrimidin-2-yl)-N-(4-(((S)-5,5-dimethyltetrahydrofuran-2-yl)methyl)-5-(6-methoxypyridin-2-yl)-4H-1,2,4-triazol-3-yl)-1-methoxypropane-2-sulfonamide], the EC50 was determined as 82 nM.
For the molecule `COc1cccc(-c2nnc(NS(=O)(=O)[C@@H](C)[C@H](OC)c3ncc(Cl)cn3)n2[C@@H](C)c2c(C)noc2C)n1` (racemic) [Example 310.0, (1R,2S)-1-(5-chloropyrimidin-2-yl)-N-(4-((R)-1-(3,5-dimethylisoxazol-4-yl)ethyl)-5-(6-methoxypyridin-2-yl)-4H-1,2,4-triazol-3-yl)-1-methoxypropane-2-sulfonamide or (1R,2S)-1-(5-chloropyrimidin-2-yl)-N-(4-((S)-1-(3,5-dimethylisoxazol-4-yl)ethyl)-5-(6-methoxypyridin-2-yl)-4H-1,2,4-triazol-3-yl)-1-methoxypropane-2-sulfonamide], the EC50 was 7.4 nM.
Take `COc1cccc(-c2nnc(NS(=O)(=O)[C@@H](C)[C@@H](OC(C)C)c3ncc(C)cn3)n2[C@@H](C)[C@H]2CCCO2)n1` (single isomer, unassigned) [Example 274.0]: the EC50 was 2.2 nM.
Next, `COCC1(n2c(NS(=O)(=O)[C@@H](C)[C@@H](OC(C)C)c3ncc(C)cn3)nnc2-c2cccc(OC)n2)CC1` [Example 64.0]: 0.16 nM; `COc1cccc(-c2nnc(NS(=O)(=O)[C@@H](C)[C@H](C)c3ncc(Cl)cn3)n2[C@@H](C)c2noc(C)n2)n1` (single isomer, unassigned) [Example 245.0, (2S,3R)-3-(5-chloro-2-pyrimidinyl)-N-(5-(6-methoxy-2-pyridinyl)-4-((1R)-1-(5-methyl-1,2,4-oxadiazol-3-yl)ethyl)-4H-1,2,4-triazol-3-yl)-2-butanesulfonamide or (2S,3R)-3-(5-chloro-2-pyrimidinyl)-N-(5-(6-methoxy-2-pyridinyl)-4-((1S)-1-(5-methyl-1,2,4-oxadiazol-3-yl)ethyl)-4H-1,2,4-triazol-3-yl)-2-butanesulfonamide]: 7 nM; `CC[C@@H](c1c(C)noc1C)n1c(NS(=O)(=O)[C@@H](C)[C@H](OC)c2ncc(Cl)cn2)nnc1-c1cccc(OC)n1` (single isomer, unassigned) [Example 218.0, (1R,2S)-1-(5-chloro-2-pyrimidinyl)-N-(4-((1S)-1-(3,5-dimethyl-1,2-oxazol-4-yl)propyl)-5-(6-methoxy-2-pyridinyl)-4H-1,2,4-triazol-3-yl)-1-methoxy-2-propanesulfonamide or (1R,2S)-1-(5-chloro-2-pyrimidinyl)-N-(4-((1S)-1-(3,5-dimethyl-1,2-oxazol-4-yl)propyl)-5-(6-methoxy-2-pyridinyl)-4H-1,2,4-triazol-3-yl)-1-methoxy-2-propanesulfonamide]: 3.7 nM.
On to `COc1cccc(-c2nnc(NS(=O)(=O)[C@@H](C)[C@@H](OC(C)C)c3ncc(C)cn3)n2[C@H](C)[C@@H]2CCCCO2)n1` (single isomer, unassigned) [Example 322.0], for which the EC50 was 1.2 nM.
Turning to `CC[C@@H](c1c(C)noc1C)n1c(NS(=O)(=O)[C@@H](C)[C@@H](OC(C)C)c2ncc(C)cn2)nnc1-c1cccc(OC)n1` (single isomer, unassigned) [Example 221.0, (1S,2S)-N-(4-((1R)-1-(3,5-dimethyl-1,2-oxazol-4-yl)propyl)-5-(6-methoxy-2-pyridinyl)-4H-1,2,4-triazol-3-yl)-1-(5-methyl-2-pyrimidinyl)-1-(2-propanyloxy)-2-propanesulfonamide or (1S,2S)-N-(4-((1S)-1-(3,5-dimethyl-1,2-oxazol-4-yl)propyl)-5-(6-methoxy-2-pyridinyl)-4H-1,2,4-triazol-3-yl)-1-(5-methyl-2-pyrimidinyl)-1-(2-propanyloxy)-2-propanesulfonamide], the EC50 was determined as 14 nM.
In the case of `COc1cccc(-c2nnc(NS(=O)(=O)[C@@H](C)[C@@H](OC(C)C)c3ncc(C)cn3)n2[C@@H](C)c2noc(C)n2)n1` (single isomer, unassigned) [Example 259.0, (1S,2S)-N-(5-(6-methoxy-2-pyridinyl)-4-((1R)-1-(5-methyl-1,2,4-oxadiazol-3-yl)ethyl)-4H-1,2,4-triazol-3-yl)-1-(5-methyl-2-pyrimidinyl)-1-(2-propanyloxy)-2-propanesulfonamide or (1S,2S)-N-(5-(6-methoxy-2-pyridinyl)-4-((1S)-1-(5-methyl-1,2,4-oxadiazol-3-yl)ethyl)-4H-1,2,4-triazol-3-yl)-1-(5-methyl-2-pyrimidinyl)-1-(2-propanyloxy)-2-propanesulfonamide], the EC50 came to 8.7 nM.
Regarding `COc1cccc(-c2nnc(NS(=O)(=O)[C@@H](C)[C@H](OC)c3ncc(Cl)cn3)n2CCC#N)n1` [Example 44.0], the EC50 amounted to 4.9 nM.
With `COc1cccc(-c2nnc(NS(=O)(=O)[C@@H](C)[C@H](C)c3ncc(C)cn3)n2C2CC2)n1` [Example 114.0], the EC50 was 54 nM.
Take `COc1cccc(-c2nnc(NS(=O)(=O)[C@@H](C)[C@@H](OC(C)C)c3ncc(C)cn3)n2[C@@H](C)c2c(C)noc2C)n1` (racemic) [Example 315.0]: the EC50 amounted to 57 nM.
On to `COCC(COC)n1c(NS(=O)(=O)[C@@H](C)[C@@H](OC(C)C)c2ncc(Cl)cn2)nnc1-c1ccccn1` [Example 113.0], for which the EC50 came to 1.8 nM.
`CCC(CC)n1c(NS(=O)(=O)[C@@H](C)[C@H](OC)c2ncc(Cl)cn2)nnc1-c1cccnc1` [Example 111.0]: the EC50 stood at 27 nM.
With `CC[C@@H](c1c(C)noc1C)n1c(NS(=O)(=O)[C@@H](C)[C@H](C)c2ncc(Cl)cn2)nnc1-c1cccc(OC)n1` (single isomer, unassigned) [Example 225.0, (2S,3R)-3-(5-chloro-2-pyrimidinyl)-N-(4-((1R)-1-(3,5-dimethyl-1,2-oxazol-4-yl)propyl)-5-(6-methoxy-2-pyridinyl)-4H-1,2,4-triazol-3-yl)-2-butanesulfonamide or (2S,3R)-3-(5-chloro-2-pyrimidinyl)-N-(4-((1S)-1-(3,5-dimethyl-1,2-oxazol-4-yl)propyl)-5-(6-methoxy-2-pyridinyl)-4H-1,2,4-triazol-3-yl)-2-butanesulfonamide] the figure was 5.1 nM.
